Results published in US20210253575A1, “PYRROLIDINE AMINE COMPOUNDS FOR THE TREATMENT OF AUTOIMMUNE DISEASE” (Hoffmann-La Roche Inc., priority 2018, published 2021).
pIC50: −log10 of the molar value.

Biological target: T1, human TLR9 (Homo sapiens, UniProt Q9NR96)
T1 sequence (Q9NR96 26-1032): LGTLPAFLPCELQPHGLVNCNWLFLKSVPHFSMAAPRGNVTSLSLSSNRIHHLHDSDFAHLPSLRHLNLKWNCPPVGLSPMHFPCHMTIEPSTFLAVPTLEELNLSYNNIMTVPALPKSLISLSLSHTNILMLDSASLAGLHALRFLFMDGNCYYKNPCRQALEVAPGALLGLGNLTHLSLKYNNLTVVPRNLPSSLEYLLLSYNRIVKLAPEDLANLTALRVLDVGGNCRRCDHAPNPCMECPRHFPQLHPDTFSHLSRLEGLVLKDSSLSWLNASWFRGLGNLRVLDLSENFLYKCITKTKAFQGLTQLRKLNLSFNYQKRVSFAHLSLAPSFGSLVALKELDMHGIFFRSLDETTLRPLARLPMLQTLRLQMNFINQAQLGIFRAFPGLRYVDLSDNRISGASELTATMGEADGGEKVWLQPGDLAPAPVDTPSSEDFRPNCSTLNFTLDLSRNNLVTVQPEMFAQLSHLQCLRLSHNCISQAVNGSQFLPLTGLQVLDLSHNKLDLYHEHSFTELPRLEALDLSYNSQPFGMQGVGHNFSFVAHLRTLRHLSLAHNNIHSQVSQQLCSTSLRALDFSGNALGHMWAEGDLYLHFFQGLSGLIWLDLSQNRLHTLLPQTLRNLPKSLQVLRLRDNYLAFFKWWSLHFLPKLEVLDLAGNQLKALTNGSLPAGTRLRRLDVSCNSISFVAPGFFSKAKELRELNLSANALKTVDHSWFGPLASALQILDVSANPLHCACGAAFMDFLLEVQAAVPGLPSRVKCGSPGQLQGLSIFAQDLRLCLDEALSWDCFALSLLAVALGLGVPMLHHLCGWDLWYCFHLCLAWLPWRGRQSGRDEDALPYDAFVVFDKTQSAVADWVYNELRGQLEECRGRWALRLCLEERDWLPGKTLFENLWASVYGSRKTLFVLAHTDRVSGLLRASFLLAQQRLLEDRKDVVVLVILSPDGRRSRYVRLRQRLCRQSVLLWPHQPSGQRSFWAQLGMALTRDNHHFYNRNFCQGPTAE
Experiment: HEK293-Blue-hTLR-9 cells assay (SEAP reporter, ODN2006 stimulation)
Type: cell-based
Details: HEK293-Blue-hTLR9 cells, ODN2006 ligand, 20 hrs incubation
Method: The following tests were carried out in order to determine the activity of the compounds of formula (I) in HEK293-Blue-hTLR-7/8/9 cells assay.
HEK293-Blue-hTLR-9 Cells Assay:
A stable HEK293-Blue-hTLR-9 cell line was purchased from InvivoGen (Cat. #: hkb-htlr9, San Diego, Calif., USA). These cells were originally designed for studying the stimulation of human TLR9 by monitoring the activation of NF-κB. A SEAP (secreted embryonic alkaline phosphatase) reporter gene was placed under the control of the IFN-β minimal promoter fused to five NF-κB and AP-1-binding sites. The SEAP was induced by activating NF-κB and AP-1 via stimulating HEK-Blue hTLR9 cells with TLR9 ligands. Therefore the reporter expression was declined by TLR9 antagonist under the stimulation of a ligand, such as ODN2006 (Cat. #: tlrl-2006-1, Invivogen, San Diego, Calif., USA), for incubation of 20 hrs. The cell culture supernatant SEAP reporter activity was determined using QUANTI-Blue™ kit (Cat. #: rep-qb1, Invivogen, San Diego, Calif., USA) at a wavelength of 640 nm, a detection medium that turns purple or blue in the presence of alkaline phosphatase.
HEK293-Blue-hTLR9 cells were incubated at a density of 250,000˜450,000 cells/mL in a volume of 170 μL in a 96-well plate in Dulbecco's Modified Eagle's medium (DMEM) containing 4.5 g/L glucose, 50 U/mL penicillin, […], […], 2 mM L-glutamine, 10% (v/v) heat-inactivated fetal bovine serum with addition of 20 μL test compound in a serial dilution in the presence of final DMSO at 1% and 10 μL of 20 uM ODN2006 in above DMEM, perform incubation under 37° C. in a CO2incubator for 20 hrs. Then 20 μL of the superatant from each well was incubated with 180 μL Quanti-blue substrate solution at 37° C. for 2 hrs and the absorbance was read at 620˜655 nm using a spectrophotometer. The signalling pathway that TLR9 activation leads to downstream NF-κB activation has been widely accepted, and therefore similar reporter assay was modified for evaluating TLR9 antagonist.

Row | SMILES | pIC50
1 | N#Cc1ccc(N2C[C@H](CN3CCC4(CCNC4)C3)[C@@H](C(F)(F)F)C2)c2cccnc12 (stereo partly drawn) [Example 9, 5-[(3S,4R)-3-(2,7-diazaspiro[4.4]nonan-2-ylmethyl)-4-(trifluoromethyl)pyrrolidin-1-yl]quinoline-8-carbonitrile] | 6.98
2 | N#Cc1ccc(N2C[C@H](CN3CCC4(CC3)CNCCO4)[C@@H](C(F)(F)F)C2)c2nccnc12 [Example 70, 8-[(3S,4R)-3-(1-oxa-4,9-diazaspiro[5.5]undecan-9-ylmethyl)-4-(trifluoromethyl)pyrrolidin-1-yl]quinoxaline-5-carbonitrile] | 6.60
3 | N#Cc1ccc(N2CC(CN3CCC(N)CC3)C3(CC3)C2)c2nccnc12 (stereo not drawn) [Example 68, 8-[7-[(4-Amino-1-piperidyl)methyl]-5-azaspiro[2.4]heptan-5-yl]quinoxaline-5-carbonitrile] | 7.03
4 | N#Cc1ccc(N2C[C@H](CN3CCC4(CCCNC4)C3)[C@@H](C(F)(F)F)C2)c2cccnc12 (stereo partly drawn) [Example 6, 5-[(3S,7R)-3-(2,9-diazaspiro[4.5]decan-2-ylmethyl)-4-(trifluoromethyl)pyrrolidin-1-yl]quinoline-8-carbonitrile] | 6.87
5 | N#Cc1ccc(N2C[C@H](CN3CCC4(CCNC4)CC3)[C@@H](C(F)(F)F)C2)c2cccnc12 [Example 54, 5-[(3S,4R)-3-(2,8-Diazaspiro[4.5]decan-8-ylmethyl)-4-(trifluoromethyl)pyrrolidin-1-yl]quinoline-8-carbonitrile] | 6.82
6 | N#Cc1ccc(N2C[C@H](CN3CCC(N)CC3)[C@@H](C(F)(F)F)C2)c2nccnc12 [Example 51, 8-[(3S,4R)-3-[(4-amino-1-piperidyl)methyl]-4-(trifluoromethyl)pyrrolidin-1-yl]quinoxaline-5-carbonitrile] | 6.44
7 | N#Cc1ccc(N2C[C@H](CN3CCCC(C(N)=O)C3)[C@@H](C(F)(F)F)C2)c2nccnc12 (stereo partly drawn) [Example 69, 1-[[(3S,4R)-1-(S-cyanoquinoxalin-5-yl)-4-(trifluoromethyl)pyrrolidin-3-yl]methyl]piperidine-3-carboxamide] | 4.80
8 | N#Cc1ccc(N2C[C@H](CN3CCC(N4CCCC4)CC3)[C@@H](C(F)(F)F)C2)c2nccnc12 [Example 60, 8-[(3S,4R)-3-[(4-Pyrrolidin-1-yl-1-piperidyl)methyl]-4-(trifluoromethyl)pyrrolidin-1-yl]quinoxaline-5-carbonitrile] | 6.29
9 | N#Cc1ccc(N2CC(CN3CCC4(CCNCC4)CC3)C3(CC3)C2)c2nccnc12 (stereo not drawn) [Example 16, 8-[7-(3,9-Diazaspiro[5.5]undecan-3-ylmethyl)-5-azaspiro[2.4]heptan-5-yl]quinoxaline-5-carbonitrile] | 7.30
10 | N#Cc1ccc(N2CC(CN3CC4(CC(N)C4)C3)C3(CC3)C2)c2nccnc12 (stereo not drawn) [Example 42, 8-[7-[(6-Amino-2-azaspiro[3.3]heptan-2-yl)methyl]-5-azaspiro[2.4]heptan-5-yl]quinoxaline-5-carbonitrile] | 6.82
11 | N#Cc1ccc(N2C[C@H](CN3CCC4(CCNCC4)C3)[C@@H](C(F)(F)F)C2)c2nccnc12 [Example 46, 8-[(3S,4R)-3-(2,8-diazaspiro[4.5]decan-2-ylmethyl)-4-(trifluoromethyl)pyrrolidin-1-yl]quinoxaline-5-carbonitrile] | 6.56
12 | FC(F)(F)c1ccc(N2CC(CN3CCC4(CCNCC4)CC3)C3(CC3)C2)c2nccnc12 (stereo not drawn) [Example 31, 3-[[5-[8-(Trifluoromethyl)quinoxalin-5-yl]-5-azaspiro[2.4]heptan-7-yl]methyl]-3,9-diazaspiro[5.5]undecane] | 6.42
13 | C[C@@H]1CN(c2ccc(C(F)(F)F)c3nccnc23)C[C@H]1CNC1CCCNCC1 (stereo partly drawn) [Example 40] | 6.16
14 | C[C@H]1CN(c2ccc(C#N)c3nccnc23)C[C@@H]1CN1CCC2(CCNCC2)CC1 [Example 17, 8-[(3S,4R)-3-(3,9-diazaspiro[5.5]undecan-3-ylmethyl)-4-methyl-pyrrolidin-1-yl]quinoxaline-5-carbonitrile] | 6.87
15 | N#Cc1ccc(N2CC(CN3CCC4(CCCNC4)CC3)C3(CC3)C2)c2nccnc12 (stereo not drawn) [Example 13, 8-[7-(2,9-Diazaspiro[5.5]undecan-9-ylmethyl)-5-azaspiro[2.4]heptan-5-yl]quinoxaline-5-carbonitrile] | 7.22
16 | CNCC1CCN(C[C@H]2CN(c3ccc(C#N)c4nccnc34)C[C@@H]2C(F)(F)F)CC1 [Example 81, 8-[(3S,4R)-3-[[4-(methylaminomethyl)-1-piperidyl]methyl]-4-(trifluoromethyl)pyrrolidin-1-yl]quinoxaline-5-carbonitrile] | 6.66
17 | N#Cc1ccc(N2C[C@@H](CN3CCC4(CCNC4)C3)[C@H](C(F)F)C2)c2cccnc12 (relative stereo) [Example 34, 5-[Trans-3-(2,7-diazaspiro[4.4]nonan-2-ylmethyl)-4-(difluoromethyl)pyrrolidin-1-yl]quinoline-8-carbonitrile] | 7.07
18 | N#Cc1ccc(N2C[C@H](CNC3CCNCC3)[C@@H](C(F)(F)F)C2)c2nccnc12 [Example 71, 8-[(3S,4R)-3-[(4-piperidylamino)methyl]-4-(trifluoromethyl)pyrrolidin-1-yl]quinoxaline-5-carbonitrile] | 7.06
19 | N#Cc1ccc(N2C[C@H](CN3CCC(N4CCCCC4)CC3)[C@@H](C(F)(F)F)C2)c2cccnc12 [Example 10, 5-[(3S,4R)-3-[[4-(1-piperidyl)-1-piperidyl]methyl]-4-(trifluoromethyl)pyrrolidin-1-yl]quinoline-8-carbonitrile] | 6.08
20 | N#Cc1ccc(N2CC(CN3C[C@H]4CNC[C@H]4C3)C3(CC3)C2)c2nccnc12 (stereo partly drawn) [Example 18, 8-[7-[[(3aR,6aS)-2,3,3a,4,6,6a-hexahydro-H-pyrrolo[3,4-c]pyrrol-5-yl]methyl]-5-azaspiro[2.4]heptan-5-yl]quinoxaline-5-carbonitrile] | 7.01
21 | N#Cc1ccc(N2CC(CN3CCC4(CCCNC4)C3)C3(CC3)C2)c2nccnc12 (stereo not drawn) [Example 22, 8-[7-(2,9-Diazaspiro[4.5]decan-2-ylmethyl)-5-azaspiro[2.4]heptan-5-yl]quinoxaline-5-carbonitrile] | 6.82
22 | N#Cc1ccc(N2C[C@@H](CN3CCC4(CCNCC4)CC3)[C@H](C(F)F)C2)c2cccnc12 (relative stereo) [Example 27, 5-[Trans-3-(3,9-diazaspiro[5.5]undecan-3-ylmethyl)-4-(difluoromethyl)pyrrolidin-1-yl]quinoline-8-carbonitrile] | 7.49
23 | N#Cc1ccc(N2C[C@H](CN3CC4(CC(N)C4)C3)[C@@H](C(F)(F)F)C2)c2nccnc12 [Example 47, 8-[(3S,4R)-3-[(6-amino-2-azaspiro[3.3]heptan-2-yl)methyl]-4-(trifluoromethyl)pyrrolidin-1-yl]quinoxaline-5-carbonitrile] | 6.75
24 | N#Cc1ccc(N2C[C@H](CN3CC4CCC(C3)C4N)[C@@H](C(F)(F)F)C2)c2nccnc12 (stereo partly drawn) [Example 73, 8-[(3S,4R)-3-[(8-amino-3-azabicyclo[3.2.1]octan-3-yl)methyl]-4-(trifluoromethyl)pyrrolidin-1-yl]quinoxaline-5-carbonitrile] | 5.92
